Source: US11965091B2, “Biocide free associative thickener” (Rohm and Haas Company, priority 2019, dated 2024)
Where a name gives a salt, the structure may show the parent alone.

Test system: standard pool of bacteria, yeasts, and molds
Experiment: Microbial challenge test
Type: cell-based
Details: for microbial challenge test (by acid): HEURs treated with the named acid
Description: Compositions within and outside the scope of the present invention were tested for microbial growth susceptibility using a series of microbial challenge tests.
Samples were inoculated 2 times at 7-d intervals with 10^6-10^7 colony forming units per milliliter of sample (CFU/mL) of a standard pool of bacteria, yeasts, and molds obtained from American Type Culture Collection (ATCC) that are common contaminants in coatings. Once inoculated, the samples were stored in 25° C. incubators. Test samples were monitored for microbial contamination by agar plating using a standard streak plate method. Samples were plated 1 and 7 day after each microbial challenge onto trypticase soy agar (TSA) and potato dextrose agar (PDA) plates. All agar plates were checked daily up to 7 d after plating to determine the number of microorganisms surviving in the test samples. When not being checked, the agar plates were stored in incubators, 30° C. for TSA plates and 25° C. for PDA plates. The extent of microbial contamination was established by counting the colonies, where the rating score was determined from the number of microbial colonies observed on the agar plates. Reported results come from day 7 readings. Table 1 illustrates the rating system used to estimate the level of microbial contamination on streak plates. Colonies refers to the number of colonies on the plate.

| Compound | microbial challenge test (by acid) | microbial challenge test at a pH of 2.8 (pH of 2.8) | microbial challenge test at a pH of 3.3 (pH of 3.3) |
| --- | --- | --- | --- |
| O=S(=O)(O)O [Example H2SO4, sulfuric acid] | passed |  |  |
| Cl [HCl, hydrochloric acid] | passed |  |  |
| O=P(O)(O)CN(CP(=O)(O)O)CP(=O)(O)O [NTMTPA, nitrilotris(methylene)triphosphonic acid] | passed |  |  |
| O=P(O)(O)O [phosphoric acid] | passed | not optimal | failed |
